Data from ChEMBL document CHEMBL1201862, “PubChem BioAssay data set” (2004).
Calls of active or inactive are those of the source.

Assays:
[1] = target: T1, Cytochrome P450 3A4 (Homo sapiens, UniProt P08684)
[2] = target: T2, Cytochrome P450 2C9 (Homo sapiens, UniProt P11712)
[3] = A cytotoxicity screen of small molecule inhibitors of the PhoP region in Salmonella typhi identified in the primary screen. [Related pubchem assays: 1850, 1864, 1985 ]; format: functional
[4] = target: Eukaryotic translation initiation factor 4E (Mus musculus, UniProt P63073); assay: eIF4E–eIF4G protein interaction inhibitors, dose response, biochemical, TR-FRET (AID 855); format: functional;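 note: potency for disrupting eIF4E binding to eIF4GI seen as loss of FRET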
[5] = target: T3, Carboxy-terminal domain RNA polymerase II polypeptide A small phosphatase 1 (Homo sapiens, UniProt Q9GZU7); assay: inhibitors of CTDSP1, concentration-response testing, biochemical assay, absorbance-based, actives from ultra-high-throughput screening (AID 540297); format: functional
T3 sequence (Q9GZU7 whole entry): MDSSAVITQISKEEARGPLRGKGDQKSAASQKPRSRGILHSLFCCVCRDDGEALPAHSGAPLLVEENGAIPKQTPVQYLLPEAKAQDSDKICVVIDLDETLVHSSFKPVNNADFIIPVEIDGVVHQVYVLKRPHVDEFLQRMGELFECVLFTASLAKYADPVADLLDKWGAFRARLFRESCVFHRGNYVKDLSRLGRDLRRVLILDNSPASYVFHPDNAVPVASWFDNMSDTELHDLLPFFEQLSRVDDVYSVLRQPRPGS

[6] = target: Kallikrein-7 (Homo sapiens, UniProt P49862); assay: Fluorescence Intensity-based biochemical primary high throughput dose response assay to identify activators of kallikrein-7 (K7) zymogen.
[7] = target: Cytochrome P450 2C19 (Homo sapiens, UniProt P33261); assay: Cytochrome panel assay with activity outcomes. Panel member name: p450-cyp2c19 Compounds with AC50 equal or less than 10 uM are considered active; format: functional
[8] = target: T1, Cytochrome P450 3A4; remark: listed apart in the source
[9] = target: T1, Cytochrome P450 3A4; conditions: Potency
[10] = target: T2, Cytochrome P450 2C9; remark: listed apart in the source
[11] = target: Cytochrome P450 2D6 (Homo sapiens, UniProt P10635);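 note: CYP2D6 member of a cytochrome P450 panel assay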
[12] = target: T4, Short transient receptor potential channel 4 (Mus musculus, UniProt Q9QUQ5); assay: mouse TRPC4 channel activators, dose response, cell-based, HEK293 TRPC4/mu-opioid, Fluo-4 calcium (AID 434937); format: functional
T4 sequence (Q9QUQ5 whole entry): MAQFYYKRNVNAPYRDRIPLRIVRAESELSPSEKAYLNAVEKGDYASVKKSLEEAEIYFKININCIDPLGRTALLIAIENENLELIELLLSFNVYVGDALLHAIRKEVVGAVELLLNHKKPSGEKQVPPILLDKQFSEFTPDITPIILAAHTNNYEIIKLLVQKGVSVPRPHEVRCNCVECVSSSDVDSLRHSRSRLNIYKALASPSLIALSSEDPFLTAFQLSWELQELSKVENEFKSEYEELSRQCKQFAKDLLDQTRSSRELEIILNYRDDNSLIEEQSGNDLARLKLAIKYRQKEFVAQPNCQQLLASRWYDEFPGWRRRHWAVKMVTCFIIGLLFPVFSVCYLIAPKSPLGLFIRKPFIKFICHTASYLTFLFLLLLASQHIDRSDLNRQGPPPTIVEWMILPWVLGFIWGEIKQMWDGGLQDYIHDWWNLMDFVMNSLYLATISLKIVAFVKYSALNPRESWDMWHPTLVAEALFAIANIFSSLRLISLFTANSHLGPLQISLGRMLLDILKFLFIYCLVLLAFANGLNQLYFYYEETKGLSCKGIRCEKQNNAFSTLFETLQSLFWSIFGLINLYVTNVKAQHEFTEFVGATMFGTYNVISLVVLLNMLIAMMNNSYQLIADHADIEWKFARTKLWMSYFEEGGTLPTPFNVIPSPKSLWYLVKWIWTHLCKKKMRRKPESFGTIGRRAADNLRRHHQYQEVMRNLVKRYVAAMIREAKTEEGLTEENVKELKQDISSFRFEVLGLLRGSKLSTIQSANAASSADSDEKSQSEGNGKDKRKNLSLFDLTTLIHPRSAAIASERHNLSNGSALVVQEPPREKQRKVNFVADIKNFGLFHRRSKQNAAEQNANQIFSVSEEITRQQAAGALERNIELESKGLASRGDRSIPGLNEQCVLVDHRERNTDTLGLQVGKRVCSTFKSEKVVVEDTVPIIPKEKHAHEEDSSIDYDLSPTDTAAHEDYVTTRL

[13] = microbe, parasite or virus in culture; format: functional; conditions: Mycobacterium tuberculosis
[14] = growth suppression of PTEN-null colon cells, dose response, cell-based, HCT116 PTEN knockout (AID 1047); format: functional;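 note: HCT116 colon tumor cells with PTEN knocked out; cells exposed to compound for 60 hours before readout; potency for loss of cell viability measured by luminescence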
[15] = growth suppression of beta-catenin-knockout colon cells, dose response, cell-based, HCT116, human colon tumor (AID 1045); format: functional;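 note: HCT116 colon tumor cells with beta catenin knocked out; cells exposed to compound for 60 hours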
[16] = system: BJ; assay: cytotoxicity toward Ras-transformed BJeLR fibroblasts, dose response, cell-based, alamar blue fluorescence, cherrypicked samples (AID 2631); format: functional; conditions: Homo sapiens;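 note: confirmatory dose-response assay in RAS-dependent BJ fibroblasts engineered with TERT, LT and ST, with cytotoxicity read by fluorescence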
[17] = system: INS1; assay: beta cell apoptosis inhibitors, cytokine rescue, dose response, luminescence, retest (AID 449756); format: functional, cell-based; conditions: Rattus norvegicus;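 note: cell death triggered by IL-1 beta plus TNF-alpha plus IFN-gamma mixture; protective hits raise ATP signal compared with cytokine alone wells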
[18] = Shn3 3'UTR reporter inhibitors, dose response, cell-based, Clone20 osteoblasts, firefly luciferase, cherry-picked (AID 624132); format: functional;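 note: firefly luciferase luminescence from reporter carrying the Shn3 3'UTR in osteoblasts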
[19] = control 3'UTR Renilla luciferase suppression, dose response, counter-screen for Shn3 inhibitor project, cell-based, Clone20-Shn3RL, cherry-picked (AID 624133); format: functional
[20] = target: Protein Wnt-3a (Mus musculus, UniProt P27467); assay: Wnt3a-driven reporter signaling inhibition, dose response, selectivity assay for Gli-SUFU antagonist project, Wnt-LIGHT cells, luminescence (AID 651570); format: functional; conditions: read-out: IC50_Mean;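 note: Wnt-LIGHT reporter cells stimulated with conditioned medium from Wnt3a-producing cells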
Sequence of Protein Wnt-3a (P27467 whole entry): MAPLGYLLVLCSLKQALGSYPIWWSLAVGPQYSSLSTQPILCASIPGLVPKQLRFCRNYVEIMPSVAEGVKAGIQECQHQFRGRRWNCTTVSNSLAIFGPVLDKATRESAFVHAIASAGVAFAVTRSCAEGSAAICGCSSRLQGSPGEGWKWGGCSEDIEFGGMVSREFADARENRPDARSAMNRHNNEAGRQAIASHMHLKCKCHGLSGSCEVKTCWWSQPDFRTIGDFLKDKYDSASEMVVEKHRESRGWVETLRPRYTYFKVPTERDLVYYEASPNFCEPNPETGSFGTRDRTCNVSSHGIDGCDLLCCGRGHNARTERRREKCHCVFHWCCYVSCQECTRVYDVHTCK

T2 sequence (P11712 whole entry): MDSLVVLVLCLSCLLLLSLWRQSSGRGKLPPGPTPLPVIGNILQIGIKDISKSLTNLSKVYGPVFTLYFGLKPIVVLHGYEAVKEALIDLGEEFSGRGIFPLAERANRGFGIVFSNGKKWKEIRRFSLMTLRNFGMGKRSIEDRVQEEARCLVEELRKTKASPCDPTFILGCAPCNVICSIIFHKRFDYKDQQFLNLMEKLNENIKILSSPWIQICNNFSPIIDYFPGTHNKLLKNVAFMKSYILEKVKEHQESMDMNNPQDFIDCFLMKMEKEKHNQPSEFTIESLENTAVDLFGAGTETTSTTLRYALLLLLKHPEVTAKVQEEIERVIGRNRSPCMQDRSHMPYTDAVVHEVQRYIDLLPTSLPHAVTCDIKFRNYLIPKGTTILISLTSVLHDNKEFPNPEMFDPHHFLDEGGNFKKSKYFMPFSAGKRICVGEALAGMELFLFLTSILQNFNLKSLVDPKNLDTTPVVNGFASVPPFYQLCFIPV
T1 sequence (P08684 whole entry): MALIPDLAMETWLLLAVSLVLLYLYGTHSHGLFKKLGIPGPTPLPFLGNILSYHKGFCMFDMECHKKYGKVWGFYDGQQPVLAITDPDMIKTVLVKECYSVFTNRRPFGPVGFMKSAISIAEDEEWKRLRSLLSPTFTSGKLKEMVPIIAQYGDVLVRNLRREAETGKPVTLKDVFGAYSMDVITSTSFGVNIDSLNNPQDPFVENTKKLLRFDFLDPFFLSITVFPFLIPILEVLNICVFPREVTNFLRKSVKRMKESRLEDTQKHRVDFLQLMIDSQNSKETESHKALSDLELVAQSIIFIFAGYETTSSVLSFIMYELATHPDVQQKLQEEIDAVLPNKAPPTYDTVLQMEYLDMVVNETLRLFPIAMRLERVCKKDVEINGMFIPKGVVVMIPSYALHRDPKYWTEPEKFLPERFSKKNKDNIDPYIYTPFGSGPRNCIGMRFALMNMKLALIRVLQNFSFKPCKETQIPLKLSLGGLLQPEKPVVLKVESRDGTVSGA
Sequence of Cytochrome P450 2C19 (P33261 whole entry): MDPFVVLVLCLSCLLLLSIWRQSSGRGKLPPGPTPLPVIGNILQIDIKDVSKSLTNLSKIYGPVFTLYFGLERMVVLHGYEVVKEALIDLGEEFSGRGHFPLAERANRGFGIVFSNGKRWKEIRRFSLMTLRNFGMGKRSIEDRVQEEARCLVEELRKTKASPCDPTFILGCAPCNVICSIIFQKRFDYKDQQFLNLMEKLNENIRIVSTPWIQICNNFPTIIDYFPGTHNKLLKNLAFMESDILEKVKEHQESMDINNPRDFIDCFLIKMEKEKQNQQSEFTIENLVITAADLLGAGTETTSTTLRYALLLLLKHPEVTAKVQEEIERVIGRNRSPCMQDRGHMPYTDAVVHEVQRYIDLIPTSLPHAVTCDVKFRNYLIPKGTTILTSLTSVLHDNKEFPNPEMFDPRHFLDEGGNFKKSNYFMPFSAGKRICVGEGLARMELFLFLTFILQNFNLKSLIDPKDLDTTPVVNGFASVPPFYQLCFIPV
Sequence of Eukaryotic translation initiation factor 4E (P63073 whole entry, the tested form may be a part): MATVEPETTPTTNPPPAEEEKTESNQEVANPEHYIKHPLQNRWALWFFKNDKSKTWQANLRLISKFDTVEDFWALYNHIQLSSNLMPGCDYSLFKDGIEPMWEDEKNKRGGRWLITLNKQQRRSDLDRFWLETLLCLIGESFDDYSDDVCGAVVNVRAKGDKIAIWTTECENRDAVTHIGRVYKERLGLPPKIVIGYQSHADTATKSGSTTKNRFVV
Sequence of Kallikrein-7 (P49862 whole entry): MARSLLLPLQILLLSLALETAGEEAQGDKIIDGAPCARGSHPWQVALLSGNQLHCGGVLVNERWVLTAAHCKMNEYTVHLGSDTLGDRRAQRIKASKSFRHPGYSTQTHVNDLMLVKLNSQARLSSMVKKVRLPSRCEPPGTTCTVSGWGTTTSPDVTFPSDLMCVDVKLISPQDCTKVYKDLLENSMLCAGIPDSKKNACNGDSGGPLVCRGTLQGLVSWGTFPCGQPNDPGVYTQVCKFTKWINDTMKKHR
Sequence of Cytochrome P450 2D6 (P10635 whole entry): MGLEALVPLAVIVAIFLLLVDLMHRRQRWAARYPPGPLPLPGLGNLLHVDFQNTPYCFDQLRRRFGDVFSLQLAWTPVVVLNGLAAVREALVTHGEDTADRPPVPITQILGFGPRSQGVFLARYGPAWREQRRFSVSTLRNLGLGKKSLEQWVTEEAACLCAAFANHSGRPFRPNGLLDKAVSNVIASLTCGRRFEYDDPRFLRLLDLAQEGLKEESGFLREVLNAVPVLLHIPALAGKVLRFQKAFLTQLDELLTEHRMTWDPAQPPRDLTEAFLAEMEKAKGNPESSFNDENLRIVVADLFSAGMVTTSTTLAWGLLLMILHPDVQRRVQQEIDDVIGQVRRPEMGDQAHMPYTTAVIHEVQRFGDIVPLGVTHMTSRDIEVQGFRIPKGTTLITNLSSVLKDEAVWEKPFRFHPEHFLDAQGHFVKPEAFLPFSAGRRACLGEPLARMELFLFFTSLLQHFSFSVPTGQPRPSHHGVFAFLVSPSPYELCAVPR

In the case of `CSc1ccc(Cl)c(C(=O)NCCOc2cc(C)ccc2C(C)C)c1`, the AC50 [1] is reported as 1 µM (inconclusive) and the AC50 [2] is reported as “inconclusive”.
In the case of `CCCCOc1ccc(OCCNC(=O)c2ccco2)cc1`, the EC50 [3] is reported as > 50 µM (active).
With `O=C(Cn1cnc2ccccc21)Nc1ccc(SC(F)F)cc1` the EC50 [3] was > 50 µM (active).
In the case of `O=C(NC1CCC(O)CC1)c1cc(-c2ccco2)nc2ccccc12` (stereo not drawn), the IC50 [4] is reported as 50 µM (inactive), the IC50 [5] is reported as 5.9 µM (active) and the EC50 [6] is reported as > 69.5 µM (inactive).
For `O=C(C[n+]1ccccc1)c1ccc(-c2ccccc2)cc1`, the EC50 [3] was > 50 µM (active).
For `CN1CCN(c2ncc3nc(-c4ccc(F)cc4)c(=O)n(C4CC4)c3n2)CC1`, the AC50 ([7]; read-out: AC50) was 25.1 µM (inconclusive) and the AC50 [8] was “inconclusive”.
With `CC(=O)OC1CC2C(C)(C)C(O)C=C[C@@]2(C)C2CC[C@]3(C)C(=CC(=O)OC3c3ccoc3)[C@]12C` (stereo partly drawn) the AC50 [9] was 15.8 µM (inconclusive).
For `CCNc1cc(O)ccc1C`, the AC50 [9] was 25.1 µM (inconclusive).
In the case of `Cc1cc2ccccc2c(=O)n1CC(=O)NCCC1=CCCCC1`, the EC50 [3] is reported as > 50 µM (active).
In the case of `COCC(=O)Oc1c(Sc2ccccc2[N+](=O)[O-])c(C)nn1C(C)(C)C`, the IC50 [4] is reported as 50 µM (inactive).
With `COc1ccc(-c2nc(NC(=O)c3ccccc3)sc2-c2ccc([N+](=O)[O-])cc2)cc1` the AC50 ([7]; read-out: AC50) was 1.26 µM (inconclusive), the AC50 [10] was 2.82 µM (inconclusive) and the AC50 [11] was “inconclusive”.
In the case of `CC(COc1ccccc1)N1CCC(CO)(CCc2ccccc2)CC1` (stereo not drawn), the EC50 [12] is reported as 267 nM (active).
For `CCc1ccc(-c2nn(-c3ccccc3)cc2CSC(=N)N)cc1`, the CC50 [13] was 13.7 µM (active), the EC50 [14] was 9.61 µM (active) and the EC50 [15] was 11.2 µM (active). For the same compound, the EC50 [16] was > 133 µM (inactive) and the AC50 [17] was 8.15 µM (active).
For `Cc1noc(C)c1-c1cc(N2CCN(C)CC2)ncn1`, the AC50 [2] was “inconclusive”.
With `O=C(O)CSSCC(=O)O` the AC50 [7] was “inconclusive” and the AC50 [11] was “inconclusive”.
For `CC1Cc2cc(S(=O)(=O)N3CCC(C(=O)N4CCN(c5ccccc5F)CC4)CC3)ccc2N1C(=O)C1CC1` (stereo not drawn), the AC50 [17] was 5.34 µM (active), the AC50 [18] was 1.65 µM (active) and the AC50 [19] was 4.74 µM (active). The IC50 [20] was 5.83 µM (active).
For `Nc1nc2ncccn2c1-c1ccc(F)c(F)c1`, the EC50 [6] was 9.39 µM (active).
In the case of `C[C@@H](NCc1cc(Br)cc2[nH]c(=O)c(=O)[nH]c12)P(=O)(O)O`, the AC50 [2] is reported as “inconclusive”.
In the case of `C=CCN=C=S` [ALLYL ISOTHIOCYANATE], the AC50 [9] is reported as 39.8 µM (inconclusive).
